Holding throughout (type): functional
One assay has as its system HCT-116. Kind of assay: Anticancer activity against human HCT-116 cells assessed as cell growth inhibition measured after 48 hrs by SRB assay. For orientation: The SRB assay estimates cell density from bound dye.
Another assay deals with LOX IMVI. The assay is described as follows: Anticancer activity against human LOX IMVI cells assessed as cell growth inhibition measured after 48 hrs by SRB assay.
The test system of the next assay is SF-295. Kind of assay: Anticancer activity against human SF-295 cells assessed as cell growth inhibition measured after 48 hrs by SRB assay.
Assay [1] concerns Panel NCI-60 (60 carcinoma cell lines). The assay is described as follows: Anticancer activity against human Panel NCI-60 (60 carcinoma cell lines) line assessed as cell growth inhibition measured after 48 hrs by SRB assay.
The test system of a further assay is 786-0. Kind of assay: Anticancer activity against human 786-0 cells assessed as cell growth inhibition measured after 48 hrs by SRB assay.
The next assay deals with A549. Kind of assay: Anticancer activity against human A549 cells assessed as cell growth inhibition measured after 48 hrs by SRB assay.

A value given as a limit tells only on which side of the number the result lay.

By GI50 is commonly meant the concentration that inhibits growth by half.

For the compound `COC(=O)C[C@@H]1NC(=O)c2cc(Oc3cc(C)cc(C)c3)c(NC(=O)c3cc(OC)c(OC)c(OC)c3)cc2NC1=O`, the concentration for 50% growth inhibition (GI50) turned out to be 30 nM in the assay with HCT-116; 20 nM with LOX IMVI; 70 nM in the assay with SF-295; 50 nM in assay [1]; 70 nM in the assay with 786-0; 70 nM in the assay on A549.
With `COc1cc(C(=O)Nc2cc3c(cc2Oc2cc(C)cc(C)c2)C(=O)N[C@@H](CC(=O)O)C(=O)N3)cc(OC)c1OC`, the GI50 (with HCT-116; in the assay with LOX IMVI; with SF-295; in assay [1]; in the assay with 786-0; in the assay with A549) was > 50000 nM throughout.
In the case of `CCc1nc(C[C@@H]2NC(=O)c3cc(Oc4cc(C)cc(C)c4)c(NC(=O)c4cc(OC)c(OC)c(OC)c4)cc3NC2=O)no1`, the concentration for 50% growth inhibition (GI50) in the assay on HCT-116 came to 330 nM; with LOX IMVI it was 240 nM; with SF-295 it was 120 nM; in assay [1], 360 nM; in the assay on 786-0, 660 nM; in the assay on A549, 270 nM.
Consider `COc1cc(C(=O)Nc2cc3c(cc2Oc2cc(C)cc(C)c2)C(=O)N[C@@H](CC(=O)N2CCN(C)CC2)C(=O)N3)cc(OC)c1OC`, for which the concentration for 50% growth inhibition (GI50) worked out at 140 nM in the assay on HCT-116; 90 nM in the assay with LOX IMVI; 670 nM in the assay on SF-295; 1580 nM in assay [1]; 1570 nM in the assay with 786-0; 180 nM in the assay on A549.
For the compound `COC(=O)C[C@@H]1NC(=O)c2cc(Oc3ccc4c(c3)CCC4)c(NC(=O)c3cc(OC)c(OC)c(OC)c3)cc2NC1=O`, the GI50 in the assay on HCT-116 is 1710 nM; with LOX IMVI it was 1930 nM; in the assay with SF-295, 990 nM; in assay [1] it was 1860 nM; with 786-0, 2130 nM; in the assay on A549 it was 1400 nM.
For the compound `CCOC(=O)C1NC(=O)c2cc(Oc3cc(C)cc(C)c3)c(NC(=O)c3cc(OC)c(OC)c(OC)c3)cc2NC1=O` (stereo unspecified), the concentration for 50% growth inhibition (GI50) (in the assay with HCT-116; in the assay with LOX IMVI; in the assay on SF-295; in assay [1]; with 786-0; in the assay on A549) was > 50000 nM throughout.
For `CCN(CC)C(=O)C[C@@H]1NC(=O)c2cc(Oc3cc(C)c(F)c(C)c3)c(NC(=O)c3cc(OC)c(OC)c(OC)c3Cl)cc2NC1=O`, the concentration for 50% growth inhibition (GI50) in the assay on HCT-116 is 17 nM; in the assay with LOX IMVI, 8 nM; in the assay on SF-295, 27 nM; in assay [1], 16 nM; with 786-0 it was 61 nM; in the assay with A549, 26 nM.
Consider `COC(=O)C[C@@H]1NC(=O)c2cc(Oc3cc(C)cc(F)c3)c(NC(=O)c3cc(OC)c(OC)c(OC)c3)cc2NC1=O`, for which the GI50 in the assay with HCT-116 came out at 160 nM; in the assay with LOX IMVI, 190 nM; in the assay on SF-295 it was 150 nM; in assay [1], 180 nM; in the assay with 786-0, 160 nM; with A549, 140 nM.
On to `CCN(CC)C(=O)C[C@H]1C(=O)Nc2cc(NC(=O)c3cc(OC)c(OC)c(OC)c3)c(Oc3cc(C)cc(C)c3)cc2C(=O)N1CC`, for which the GI50 with HCT-116 turned out to be 145 nM; in the assay on LOX IMVI, 134 nM; in the assay with SF-295, 118 nM; in assay [1], 69 nM; in the assay on 786-0, 158 nM; in the assay with A549, 148 nM.
As for `COC(=O)C[C@@H]1NC(=O)c2cc(Oc3cc(C)cc(C)c3)c(NC(=O)c3ccco3)cc2NC1=O`, the GI50 (with HCT-116; with LOX IMVI; in the assay on SF-295; in assay [1]; in the assay with 786-0; with A549) was > 50000 nM in each case.
On to `COC(=O)C[C@@H]1NC(=O)c2cc(OCc3ccccc3)c(NC(=O)c3cc(OC)c(OC)c(OC)c3)cc2NC1=O`, for which the 50% growth inhibitory concentration (GI50) (with HCT-116; in the assay with LOX IMVI; in the assay on SF-295; in assay [1]; in the assay with 786-0; with A549) was > 50000 nM each time.
`CCN(CC)C(=O)C[C@@H]1NC(=O)c2cc(Oc3cc(C)cc(C)c3)c(NC(=O)c3cc(OC)c(OC)c(OC)c3)cc2N(C)C1=O`: the 50% growth inhibitory concentration (GI50) (in the assay on HCT-116; in the assay on LOX IMVI; in the assay with SF-295; in assay [1]; with 786-0; in the assay with A549) was > 50000 nM throughout.
As for `COc1cc(C(=O)Nc2cc3c(cc2Oc2cc(C)cc(C)c2)C(=O)N[C@@H](Cc2ncnn2C)C(=O)N3)cc(OC)c1OC`, the 50% growth inhibitory concentration (GI50) with HCT-116 was 90 nM; with LOX IMVI, 70 nM; with SF-295, 180 nM; in assay [1] it was 160 nM; in the assay with 786-0 it was 36000 nM; in the assay with A549 it was 470 nM.
As for `COC(=O)C[C@@H]1NC(=O)c2cc(Oc3cc(C)cc(C)c3)c(NC(=O)c3cc(OC)cc(OC)c3)cc2NC1=O`, the 50% growth inhibitory concentration (GI50) in the assay with HCT-116 amounted to 200 nM; in the assay with LOX IMVI, 240 nM; in the assay with SF-295, 80 nM; in assay [1], 240 nM; in the assay with 786-0, 150 nM; in the assay on A549, 150 nM.
As for `COC(=O)C[C@@H]1NC(=O)c2cc(Oc3cc(Cl)cc(Cl)c3)c(NC(=O)c3cc(OC)c(OC)c(OC)c3)cc2NC1=O`, the 50% growth inhibitory concentration (GI50) (in the assay with HCT-116; in the assay on LOX IMVI; in the assay on SF-295; in assay [1]; in the assay with 786-0; in the assay with A549) was > 50000 nM throughout.
With `COc1cc(C(=O)Nc2cc3c(cc2Oc2cc(C)cc(C)c2)C(=O)N[C@@H](CC(N)=O)C(=O)N3)cc(OC)c1OC`, the 50% growth inhibitory concentration (GI50) in the assay on HCT-116 turned out to be 790 nM; with LOX IMVI, 350 nM; in the assay on SF-295, 2010 nM; in assay [1] it was 1120 nM; with 786-0, 3450 nM; in the assay on A549 it was 3970 nM.
As to `CCN(CC)C(=O)C[C@@H]1NC(=O)c2cc(Oc3cc(C)cc(C)c3)c(N(C)C(=O)c3cc(OC)c(OC)c(OC)c3)cc2NC1=O`, the GI50 with HCT-116 was 50000 nM; in the assay with LOX IMVI, > 50000 nM; with SF-295 it was > 50000 nM; in assay [1], > 50000 nM; in the assay on 786-0 it was > 50000 nM; in the assay with A549, > 50000 nM.
As for `COC(=O)C[C@@H]1NC(=O)c2cc(OCc3cc(C)cc(C)c3)c(NC(=O)c3cc(OC)c(OC)c(OC)c3)cc2NC1=O`, the 50% growth inhibitory concentration (GI50) is 2820 nM in the assay with HCT-116; 2990 nM in the assay on LOX IMVI; 1500 nM in the assay with SF-295; 3020 nM in assay [1]; 4780 nM in the assay on 786-0; 1810 nM with A549.
In the case of `COC(=O)C[C@@H]1NC(=O)c2cc(OCCc3cc(C)cc(C)c3)c(NC(=O)c3cc(OC)c(OC)c(OC)c3)cc2NC1=O`, the GI50 with HCT-116 was 4010 nM; with LOX IMVI, 5150 nM; in the assay with SF-295, 1610 nM; in assay [1], 3020 nM; in the assay with 786-0 it was 7450 nM; with A549, 2090 nM.
Turning to `CCN(CC)C(=O)C[C@H]1C(=O)Nc2cc(NC(=O)c3cc(OC)c(OC)c(OC)c3Cl)c(Oc3cc(C)c(F)c(C)c3)cc2C(=O)N1C`, the GI50 with HCT-116 came to 22 nM; in the assay on LOX IMVI, 9 nM; in the assay on SF-295, 19 nM; in assay [1] it was 18 nM; in the assay with 786-0, 30 nM; with A549, 21 nM.
Turning to `COC(=O)C[C@@H]1NC(=O)c2cc(Oc3ccc(F)cc3)c(NC(=O)c3cc(OC)c(OC)c(OC)c3)cc2NC1=O`, the concentration for 50% growth inhibition (GI50) (in the assay with HCT-116; in the assay on LOX IMVI; in the assay on SF-295; in assay [1]; in the assay with 786-0; with A549) was > 50000 nM throughout.

For the origin of these results see ChEMBL document CHEMBL5214978, “Identification of 1,4-Benzodiazepine-2,5-dione Derivatives as Potential Protein Synthesis Inhibitors with Highly Potent Anticancer Activity” (J Med Chem, 2022).
